In patent US9499553B2 (CHUGAI SEIYAKU KABUSHIKI KAISHA, priority 2013, dated 2016) one finds IC50 data, which are given here for 38 compounds.

Structures can show the parent of a compound that is named as a salt.

For one test, the target named is T1, human NaPi-IIb (Homo sapiens, UniProt O95436).
T1 construct: expressed in transfected cells
T1 sequence (O95436 1-690): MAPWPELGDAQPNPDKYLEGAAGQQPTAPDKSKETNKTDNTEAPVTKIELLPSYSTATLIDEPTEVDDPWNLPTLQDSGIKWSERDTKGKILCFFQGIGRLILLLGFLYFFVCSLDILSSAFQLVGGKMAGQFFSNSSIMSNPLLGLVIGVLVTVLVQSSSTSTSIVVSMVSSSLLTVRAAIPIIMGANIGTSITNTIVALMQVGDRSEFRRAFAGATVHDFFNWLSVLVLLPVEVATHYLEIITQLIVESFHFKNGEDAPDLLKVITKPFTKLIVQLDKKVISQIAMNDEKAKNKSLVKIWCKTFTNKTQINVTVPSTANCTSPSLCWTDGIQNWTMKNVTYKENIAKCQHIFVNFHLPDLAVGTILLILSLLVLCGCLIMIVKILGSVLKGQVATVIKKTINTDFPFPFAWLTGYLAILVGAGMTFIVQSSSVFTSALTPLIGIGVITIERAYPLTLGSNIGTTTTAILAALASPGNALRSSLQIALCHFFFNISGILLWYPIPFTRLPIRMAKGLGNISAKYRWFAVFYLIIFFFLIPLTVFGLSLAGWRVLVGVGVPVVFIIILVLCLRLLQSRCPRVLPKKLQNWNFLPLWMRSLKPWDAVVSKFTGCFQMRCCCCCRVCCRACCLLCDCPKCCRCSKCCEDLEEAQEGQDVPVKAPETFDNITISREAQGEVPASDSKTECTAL
In words: Inhibitory effect on 33PO4 uptake into human NaPi-IIb-expressing CHO cells. In kind it is cell-based. The conditions noted are these: read-out: IC50. The essentials:
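Stable human NaPi-IIb CHO line (G418-selected), plated and cultured overnight; ³³PO4 added in buffer A and uptake run at room temperature. Cells washed with ice-cold buffer A, then uptake counted by liquid scintillation.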
Consider `C[C@]12CCCN1N(Cc1c(Cl)cc(OCCN3CCOCC3)cc1Cl)C(=O)C(C(=O)Nc1ccc(C(F)(F)F)nc1-c1ccc(C(F)(F)F)nc1)=C2O` [Example 148, (4aR)-1-[[2,6-Dichloro-4-(2-morpholin-4-ylethoxy)phenyl]methyl]-4-hydroxy-4a-methyl-2-oxo-N-[6-(trifluoromethyl)-2-[6-(trifluoromethyl)pyridin-3-yl]pyridin-3-yl]-6,7-dihydro-5H-pyrrolo[1,2-b]pyridazine-3-carboxamide hydrochloride], for which the IC50 turned out to be 8.5 µM. In the case of `CN1N(Cc2cccc(F)c2F)C(=O)C(C(=O)Nc2ccc(C(F)(F)F)nc2-c2ccc(C(F)(F)F)nc2)=C(O)C1(C)C` [Example 304], the IC50 was determined as 3.5 µM. `Cc1ncc(-c2cc(C(F)(F)F)ccc2NC(=O)C2=C(O)[C@@]3(C)CCCN3N(Cc3cccc(F)c3F)C2=O)cc1C#N` [Example 109, (4aR)—N-[2-(5-Cyano-6-methylpyridin-3-yl)-4-(trifluoromethyl)phenyl]-1-[(2,3-difluorophenyl)methyl]-4-hydroxy-4a-methyl-2-oxo-6,7-dihydro-5H-pyrrolo[1,2-b]pyridazine-3-carboxamide]: the IC50 came out at 9.4 µM. On the same count and under the same terms, the same measure for `C[C@]12CCCN1N(Cc1ccc(F)cc1F)C(=O)C(C(=O)Nc1cc(F)c(Br)c(F)c1)=C2O` [Example 192]: 16.5 µM; for `CN1N(Cc2ccc(OCCN3CCOCC3)c(F)c2F)C(=O)C(C(=O)Nc2ccc(C(F)(F)F)cc2-c2ccc(C(F)(F)F)nc2)=C(O)C12CCC2` [Example 282]: 11.1 µM. On the same count and under the same terms, the same measure for `C[C@]12CCCN1N(Cc1cccc(OC(F)F)c1)C(=O)C(C(=O)Nc1ccc(C(F)(F)F)cc1-c1ccc(C(F)(F)F)nc1)=C2O` [Example 167]: 4.3 µM. As to `CN(CCO)CCOc1ccc(CN2C(=O)C(C(=O)Nc3ccc(C(F)(F)F)cc3-c3cc(C(F)(F)F)ncn3)=C(O)C3(CCC3)N2C)c(F)c1F` [Example 347], the concentration for half-maximal inhibition (IC50) stood at 25.2 µM. The same measure, in the same setting: under `Cc1c(C#N)ncnc1-c1cc(C(F)(F)F)ccc1NC(=O)C1=C(O)C(C)(C)N(C)N(Cc2cccc(F)c2F)C1=O` [Example 311] stands 8.2 µM.

In the case of `CCC1(CC)C(O)=C(C(=O)Nc2ccc(C(F)(F)F)cc2-c2ccc(C(F)(F)F)nc2)C(=O)N(Cc2ccc(OCCN3CCOCC3)c(F)c2F)N1C` [Example 293], the IC50 stood at 10.7 µM. With `C[C@]12CCCN1N(Cc1c(F)cc(CCCCCCCOC[C@H](O)[C@@H](O)CO)cc1F)C(=O)C(C(=O)Nc1ccc(C(F)(F)F)cc1-c1ccc(C(F)(F)F)nc1)=C2O` [Example 125], the IC50 was 1.3 µM.

As to `C[C@]12CCCN1N(Cc1ccc(CCCOCCCO)c(F)c1F)C(=O)C(C(=O)Nc1ccc(C(F)(F)F)cc1-c1ccc(C(F)(F)F)nc1)=C2O` [Example 141], the IC50 stood at 7.8 µM. Still for that read-out and setting: under `COc1cccc(-c2cc(C(F)(F)F)ccc2NC(=O)C2=C(O)[C@@]3(C)CCCN3N(Cc3ccc(OC[C@H]4CCCO4)c(F)c3F)C2=O)c1OC` [Example 159] stands 11.4 µM; under `COCCOc1cc(NC(=O)C2=C(O)[C@@]3(C)CCCN3N(Cc3cccc(F)c3F)C2=O)c(-c2cccc(OC)c2OC)cc1C(F)(F)F` [Example 92], 20.2 µM. Still for that read-out and setting: the same measure for `C[C@]12CCCN1N(Cc1ccc(F)c(Br)c1)C(=O)C(C(=O)Nc1cc(F)c(Br)c(F)c1)=C2O` [Example 224]: 7.2 µM. Still for that read-out and setting: under `COc1cc(-c2cc(C(F)(F)F)ccc2NC(=O)C2=C(O)[C@@]3(C)CCCN3N(Cc3cccc(F)c3F)C2=O)cnc1C#N` [Example 114, (4aR)—N-[2-(6-Cyano-5-methoxypyridin-3-yl)-4-(trifluoromethyl)phenyl]-1-[(2,3-difluorophenyl)methyl]-4-hydroxy-4a-methyl-2-oxo-6,7-dihydro-5H-pyrrolo[1,2-b]pyridazine-3-carboxamide] stands 7.9 µM; under `COc1cccc(-c2cc(C(F)(F)F)ccc2NC(=O)C2=C(O)[C@@]3(C)CCCN3N(Cc3ccc(C#CCOCCCCO)c(F)c3F)C2=O)c1OC` [Example 123, (4aR)-1-[[2,3-Difluoro-4-[3-(4-hydroxybutoxy)prop-1-ynil]phenyl]methyl]-N-[2-(2,3-dimethoxyphenyl)-4-(trifluoromethyl)phenyl]-4-hydroxy-4a-methyl-2-oxo-6,7-dihydro-5H-pyrrolo[1,2-b]pyridazine-3-carboxamide], 14.8 µM.

As to `COc1cccc(-c2cc(C(F)(F)F)ccc2NC(=O)C2=C(O)[C@@]3(C)CCCN3N(Cc3ccc(C#CCOCCOCCOCCO)c(F)c3F)C2=O)c1OC` [Example 136], the IC50 turned out to be 17.6 µM. For `C[C@@]12CCCN1N(Cc1ccc(OCCN3CCOCC3)c(F)c1F)C(=O)C(C(=O)Nc1ccc(C(F)(F)F)cc1-c1cc(C(F)(F)F)ncn1)=C2O` [Example 108], the IC50 was 26.1 µM. On the same count and under the same terms, the same measure for `CSc1ccc(-c2cc(C(F)(F)F)ccc2NC(=O)C2=C(O)[C@@]3(C)CCCN3N(Cc3ccc(CCCCCCC(=O)O)c(F)c3F)C2=O)cn1` [Example 115, 7-[4-[[(4aR)-4-Hydroxy-4a-methyl-3-[[2-(6-methylsulfanylpyridin-3-v1)-4-(trifluoromethyl)phenyl]carbamoyl]-2-oxo-6,7-dihydro-5H-pyrrolo[1,2-b]pyridazin-1-yl]methyl]-2,3-difluorophenyl]heptanoate]: 6.9 µM.

In the case of `C[C@]12CCCN1N(Cc1cc(F)cc(F)c1)C(=O)C(C(=O)Nc1ccc(C(F)(F)F)cc1-c1ccc(C(F)(F)F)nc1)=C2O` [Example 171], the IC50 stood at 2.2 µM.

Turning to `CC1(C)CC[C@]2(C)C(O)=C(C(=O)Nc3cc(C(F)(F)F)ccc3-c3ccc(C(F)(F)F)nc3)C(=O)N(Cc3cccc(F)c3F)N12` [Example 63], the IC50 is 8.7 µM. Still for that read-out and setting: under `CCCCCN1C(=O)C(C(=O)Nc2ccc(C(F)(F)F)cc2-c2ccc(C(F)(F)F)nc2)=C(O)[C@@]2(C)CCCN12` [Example 26] stands 2.2 µM; under `C[C@]12CCCN1N(Cc1c(F)cccc1Cl)C(=O)C(C(=O)Nc1ccc(C(F)(F)F)cc1-c1cc(C(F)(F)F)ncn1)=C2O` [Example 210], 1.7 µM. Regarding `CCC1(CC)C(O)=C(C(=O)Nc2ccc(C(F)(F)F)cc2-c2cc(C(F)(F)F)ncn2)C(=O)N(Cc2ccc(OCCN3CCOCC3)c(F)c2F)N1C` [Example 291], the concentration for half-maximal inhibition (IC50) came to 14.7 µM.

In the case of `C[C@]12CCCN1N(Cc1ccccc1C#N)C(=O)C(C(=O)Nc1ccc(C(F)(F)F)cc1-c1cc(C(F)(F)F)ncn1)=C2O` [Example 178], the IC50 amounted to 8.2 µM. In the case of `C[C@]12CCCN1N(Cc1ccc(OCCN3CCOCC3)c(F)c1F)C(=O)C(C(=O)Nc1ccc(C(F)(F)F)cc1-c1ccc(C(F)(F)F)nc1)=C2O` [Example 161], the half-inhibitory concentration (IC50) was 11.5 µM. With `CC(C)[C@@H]1C(O)=C(C(=O)Nc2ccc(C(F)(F)F)cc2-c2cc(C(F)(F)F)ncn2)C(=O)N(Cc2cccc(F)c2F)N1C` [Example 249], the IC50 was 9.8 µM.

As to `Cc1cccc(CN2C(=O)C(C(=O)Nc3cc(F)c(Br)c(F)c3)=C(O)[C@@]3(C)CCCN23)c1F` [Example 195], the IC50 was determined as 4.6 µM. Still for that read-out and setting: the same measure for `CN1[C@@H](C(C)(C)C)C(O)=C(C(=O)Nc2ccc(Cl)cc2-c2cc(C(F)(F)F)ncn2)C(=O)N1Cc1cccc(F)c1F` [Example 237]: 12.8 µM. The same measure, in the same setting: the same measure for `COc1ncc(-c2cc(C(F)(F)F)ccc2NC(=O)C2=C(O)[C@@]3(C)CCCN3N(Cc3cccc(F)c3F)C2=O)c(OC)n1` [Example 72]: 8.3 µM.

The same test, now with this note: read-out: IC50 against 33PO4 uptake into human NaPi-IIb-expressing cells.
As to `CN1CCN(CCOc2ccc(CN3C(=O)C(C(=O)Nc4ccc(C(F)(F)F)cc4-c4cc(C(F)(F)F)ncn4)=C(O)C4(CCC4)N3C)c(F)c2F)CC1=O` [Example 359], the IC50 was 18.4 µM. Same read-out and setting: the same measure for `CN1N(Cc2ccc(OCCN3CCOCC3(C)C)c(F)c2F)C(=O)C(C(=O)Nc2ccc(C(F)(F)F)cc2-c2cc(C(F)(F)F)ncn2)=C(O)C12CCCC2` [Example 371]: 8.5 µM; for `CN1N(Cc2ccc(OCCCCCOC[C@H](O)CO)c(F)c2F)C(=O)C(C(=O)Nc2ccc(C(F)(F)F)cc2-c2cc(C(F)(F)F)ncn2)=C(O)C12CCC2` [Example 391]: 7 µM. Still for that read-out and setting: the same measure for `CN1N(Cc2ccc(OCCN3C4CCC3COC4)c(F)c2F)C(=O)C(C(=O)Nc2ccc(C(F)(F)F)cc2-c2cc(C(F)(F)F)ncn2)=C(O)C12CCCC2` [Example 367]: 14 µM; for `CN1N(Cc2ccc(OCCN3CC(F)(F)C3)c(F)c2F)C(=O)C(C(=O)Nc2ccc(C(F)(F)F)cc2-c2cc(C(F)(F)F)ncn2)=C(O)C12CCCC2` [Example 369]: 21.8 µM; for `CC(=O)N(C)CCN(C)CCOc1ccc(CN2C(=O)C(C(=O)Nc3ccc(C(F)(F)F)cc3-c3cc(C(F)(F)F)ncn3)=C(O)C3(CCC3)N2C)c(F)c1F` [Example 354]: 26 µM.

For `CN(C)C(=O)N1CCN(CCOc2ccc(CN3C(=O)C(C(=O)Nc4ccc(C(F)(F)F)cc4-c4cc(C(F)(F)F)ncn4)=C(O)C4(CCC4)N3C)c(F)c2F)CC1` [Example 364], the IC50 stood at 20.9 µM.

In the case of `CN1N(Cc2ccc(OCCN3CCC(N4CCOCC4)CC3)c(F)c2F)C(=O)C(C(=O)Nc2ccc(C(F)(F)F)cc2-c2cc(C(F)(F)F)ncn2)=C(O)C12CCCC2` [Example 374], the IC50 was determined as 16.4 µM.
